Measured values reported in PMC2999880 (Neuropharmacology, 2009).
Read-outs that look alike come from different tables or passages of the source.

Key:
[1] = target: recombinant α4β2 NNRs expressed in SH-EP1 cells (Homo sapiens, UniProt P17787+P43681); experiment: [3H]-nicotine binding to recombinant α4β2 NNRs in SH-EP1 cell membranes; settings: 5 nM [3H]-nicotine, test compound up to 100 μM
[2] = target: α7 NNR binding sites in rat hippocampal preparations (Rattus norvegicus, UniProt Q05941); experiment: [3H]-methyllycaconitine competition binding to rat hippocampal membranes; settings: 5 nM [3H]-methyllycaconitine, test compound up to 100 μM
Sequence of α7 NNR binding sites in rat hippocampal preparations (Q05941 23-502): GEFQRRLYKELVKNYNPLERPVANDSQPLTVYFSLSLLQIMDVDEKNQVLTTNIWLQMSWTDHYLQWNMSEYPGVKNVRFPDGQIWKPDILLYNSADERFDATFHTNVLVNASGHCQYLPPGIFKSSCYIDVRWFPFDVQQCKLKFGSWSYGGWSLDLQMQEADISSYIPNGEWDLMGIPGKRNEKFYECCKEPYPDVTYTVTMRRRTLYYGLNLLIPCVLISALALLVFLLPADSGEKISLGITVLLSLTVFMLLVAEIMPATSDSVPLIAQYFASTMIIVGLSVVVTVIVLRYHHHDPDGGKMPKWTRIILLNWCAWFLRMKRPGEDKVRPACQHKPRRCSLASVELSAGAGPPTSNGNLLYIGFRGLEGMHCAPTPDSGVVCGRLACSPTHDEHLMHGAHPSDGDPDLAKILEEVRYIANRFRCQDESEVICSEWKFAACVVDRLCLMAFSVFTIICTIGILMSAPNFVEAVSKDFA

rat α7 NNRs = rat α7 NNRs (Rattus norvegicus, UniProt Q05941); experiment: ACh-evoked currents; type: cell-based; settings: for pseudo-Hill slope (nH): variable slope sigmoid fit of inhibition of 60 μM ACh-evoked currents
Sequence of rat α7 NNRs (Q05941 23-502): as above

[3] = target: presynaptic naturally-expressed α4β2-containing nicotinic receptors (Rattus norvegicus, UniProt P09483+P12390); experiment: Nicotine-evoked [3H]-dopamine release from rat striatal synaptosomes; type: biochemical; settings: read-out: DA Release IC50, 10 μM nicotine-evoked [3H]-dopamine release, mean (95% CI)
Sequence of presynaptic naturally-expressed α4β2-containing nicotinic receptors (P09483 31-630): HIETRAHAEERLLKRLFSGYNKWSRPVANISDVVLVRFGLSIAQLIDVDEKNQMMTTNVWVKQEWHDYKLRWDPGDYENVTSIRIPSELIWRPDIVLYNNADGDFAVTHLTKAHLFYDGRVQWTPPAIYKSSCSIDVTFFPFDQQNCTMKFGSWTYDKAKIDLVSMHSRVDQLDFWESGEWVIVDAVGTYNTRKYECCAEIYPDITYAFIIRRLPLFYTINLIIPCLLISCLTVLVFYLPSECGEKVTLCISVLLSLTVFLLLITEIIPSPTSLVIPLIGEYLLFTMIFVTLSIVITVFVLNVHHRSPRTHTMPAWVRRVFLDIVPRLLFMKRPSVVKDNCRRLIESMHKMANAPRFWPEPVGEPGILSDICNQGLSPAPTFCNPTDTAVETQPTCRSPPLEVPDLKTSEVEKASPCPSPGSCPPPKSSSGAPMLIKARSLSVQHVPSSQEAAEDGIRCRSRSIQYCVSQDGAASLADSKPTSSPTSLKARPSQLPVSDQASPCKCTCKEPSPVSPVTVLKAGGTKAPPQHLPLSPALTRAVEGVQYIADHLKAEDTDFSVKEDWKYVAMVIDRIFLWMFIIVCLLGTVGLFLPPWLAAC
Sequence of presynaptic naturally-expressed α4β2-containing nicotinic receptors (P12390 25-500): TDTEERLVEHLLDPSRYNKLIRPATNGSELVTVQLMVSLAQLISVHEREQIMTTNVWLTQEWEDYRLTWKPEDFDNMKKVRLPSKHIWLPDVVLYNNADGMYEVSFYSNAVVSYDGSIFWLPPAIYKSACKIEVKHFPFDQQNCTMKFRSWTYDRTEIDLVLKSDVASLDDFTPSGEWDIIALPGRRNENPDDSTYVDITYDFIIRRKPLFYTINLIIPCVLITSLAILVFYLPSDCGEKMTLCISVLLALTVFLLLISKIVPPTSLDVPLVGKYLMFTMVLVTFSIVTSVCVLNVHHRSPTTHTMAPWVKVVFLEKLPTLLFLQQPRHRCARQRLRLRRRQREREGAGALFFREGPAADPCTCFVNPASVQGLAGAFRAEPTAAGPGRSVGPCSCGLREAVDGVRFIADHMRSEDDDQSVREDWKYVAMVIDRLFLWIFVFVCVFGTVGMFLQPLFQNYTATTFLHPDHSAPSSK

α7 NNRs = α7 NNRs (Rattus norvegicus, UniProt Q05941); experiment: Epibatidine-evoked [3H]-norepinephrine release from rat hippocampal slices; type: cell-based
Sequence of α7 NNRs (Q05941 23-502): as the sequence (Q05941 23-502) above

[4] = Maximum plasma concentrations achieved in clinical studies; type: in vivo, human; settings: calculated from reported ng/mL and molecular weight
[5] = clinical studies, human plasma, cited from earlier work
[6] = target: α4β2 nicotinic receptors stably transfected in SH-EP1 cells (Homo sapiens, UniProt P17787+P43681); experiment: 86Rb+ efflux in α4β2/SH-EP1 cells; type: cell-based; settings: for extent of inhibition of nicotine-evoked 86Rb+ efflux: 10 μM nicotine; for extent of inhibition of TC-1827-evoked 86Rb+ efflux: 100 μM TC-1827; for effect on basal 86Rb+ efflux: compound alone, no agonist (data not shown)
Sequence of α4β2 nicotinic receptors stably transfected in SH-EP1 cells (P43681 29-627 limits assumed): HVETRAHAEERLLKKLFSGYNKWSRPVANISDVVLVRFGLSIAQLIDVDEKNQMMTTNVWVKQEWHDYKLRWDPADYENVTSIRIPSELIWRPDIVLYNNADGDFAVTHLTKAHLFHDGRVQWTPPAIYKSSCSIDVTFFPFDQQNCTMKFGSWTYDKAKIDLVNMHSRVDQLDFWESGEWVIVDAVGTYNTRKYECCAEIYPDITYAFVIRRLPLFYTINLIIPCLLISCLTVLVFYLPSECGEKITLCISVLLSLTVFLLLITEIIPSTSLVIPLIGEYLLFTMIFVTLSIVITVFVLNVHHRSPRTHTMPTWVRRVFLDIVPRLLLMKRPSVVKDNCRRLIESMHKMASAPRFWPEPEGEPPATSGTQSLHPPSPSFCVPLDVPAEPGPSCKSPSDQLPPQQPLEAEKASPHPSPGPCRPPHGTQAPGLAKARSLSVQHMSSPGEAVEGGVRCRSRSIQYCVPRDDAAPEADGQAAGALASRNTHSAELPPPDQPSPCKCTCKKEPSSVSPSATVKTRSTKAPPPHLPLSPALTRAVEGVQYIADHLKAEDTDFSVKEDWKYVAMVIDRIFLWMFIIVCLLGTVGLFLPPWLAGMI
Sequence of α4β2 nicotinic receptors stably transfected in SH-EP1 cells (P17787 26-502): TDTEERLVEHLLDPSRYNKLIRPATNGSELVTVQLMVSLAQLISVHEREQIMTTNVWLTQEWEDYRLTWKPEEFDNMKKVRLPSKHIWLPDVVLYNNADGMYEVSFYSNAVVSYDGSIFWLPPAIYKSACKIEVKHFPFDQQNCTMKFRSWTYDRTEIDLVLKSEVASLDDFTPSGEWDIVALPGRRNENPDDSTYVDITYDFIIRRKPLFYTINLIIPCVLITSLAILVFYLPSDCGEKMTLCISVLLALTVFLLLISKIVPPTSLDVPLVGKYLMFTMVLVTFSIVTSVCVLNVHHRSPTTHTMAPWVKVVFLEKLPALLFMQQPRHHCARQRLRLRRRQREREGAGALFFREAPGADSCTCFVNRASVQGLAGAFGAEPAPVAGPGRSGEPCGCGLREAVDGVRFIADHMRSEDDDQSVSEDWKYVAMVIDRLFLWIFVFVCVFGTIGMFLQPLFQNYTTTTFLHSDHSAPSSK

Sequence of recombinant α4β2 NNRs expressed in SH-EP1 cells (P43681 29-627 limits assumed): as the sequence (P43681 29-627 limits assumed) above
Sequence of recombinant α4β2 NNRs expressed in SH-EP1 cells (P17787 26-502): as the sequence (P17787 26-502) above

| Structure (SMILES) | inhibition of [3H]-nicotine binding [1] | inhibition of [3H]-methyllycaconitine binding [2] | IC50 (rat α7 NNRs) [nM] | pseudo-Hill slope (nH) (rat α7 NNRs) | IC50 [3] [nM] | IC50 (α7 NNRs) [nM] | extent of inhibition of nicotine-evoked 86Rb+ efflux [6] | extent of inhibition of TC-1827-evoked 86Rb+ efflux [6] | effect on basal 86Rb+ efflux [6] | Max. Plasma Levels ([4]; ref Dumortier et al., 1998) [µM] | Max. Plasma Levels ([4]; ref Wong et al., 2006) [µM] | Max. Plasma Levels ([5]; ref Dumortier et al., 1998) [ng/mL] | Max. Plasma Levels ([5]; ref Wong et al., 2006) [ng/mL] | also measured |
| --- | --- | --- | --- | --- | --- | --- | --- | --- | --- | --- | --- | --- | --- | --- |
| CN(C)CCCN1c2ccccc2Sc2ccc(Cl)cc21 [Chlorpromazine, chlorpromazine] | None of the compounds tested inhibited binding | None of the compounds tested inhibited binding | 9100 | −0.84 | 2800 | 1700 | – | – | – | – | – | – | – | Max. Plasma Levels ([4]; ref Chetty and Miller, 2001): 2.4 µM; Max. Plasma Levels ([4]; ref Chetty et al., 1996): 1.2 µM; Max. Plasma Levels ([5]; ref Chetty and Miller, 2001): 839 ng/mL; Max. Plasma Levels ([5]; ref Chetty et al., 1996): 422 ng/mL; Max. Plasma Levels ([5]; ref Della Corte et al., 1993): 124 ng/mL |
| CN1CCN(C2=Nc3cc(Cl)ccc3Nc3ccccc32)CC1 [Clozapine, clozapine] | None of the compounds tested inhibited binding | – | – | – | – | – | completely inhibited | fully inhibited | None of these compounds affected the basal | 4.0 | 5.9 | 1310 | 1920 | Max. Plasma Levels ([4]; ref Diaz et al., 2005): 1.8 µM; Max. Plasma Levels ([4]; ref Perry et al., 1991): 3.3 µM; Max. Plasma Levels ([5]; ref Diaz et al., 2005): 574 ng/mL; Max. Plasma Levels ([5]; ref Freudenreich et al., 1996): 880 ng/mL; Max. Plasma Levels ([5]; ref Perry et al., 1991): 1088 ng/mL |
| O=C(CCCN1CCC(O)(c2ccc(Cl)cc2)CC1)c1ccc(F)cc1 [Haloperidol, haloperidol] | None of the compounds tested inhibited binding | – | – | – | – | – | completely inhibited | – | None of these compounds affected the basal | – | – | – | – | Max. Plasma Levels ([4]; ref Roh et al., 2001): 0.23 µM; Max. Plasma Levels ([5]; ref Roh et al., 2001): 86 ng/mL |
| Clc1ccc2c(c1)N=C(N1CCNCC1)c1ccccc1N2 [N-desmethylclozapine] | None of the compounds tested inhibited binding | None of the compounds tested inhibited binding | 3200 | −1.3 | 2100 | 2200 | completely inhibited | fully inhibited | None of these compounds affected the basal | 1.9 | 2.3 | 580 | 720 | IC50 [6]: 2100 nM; activity at 6 µM (rat α7 NNRs; read-out: maximal ACh net charge response in the presence of inhibitor): 37.5 ± 5%; Max. Plasma Levels ([4]; ref Flanagan et al., 2003): 1.3 µM; Max. Plasma Levels ([5]; ref Flanagan et al., 2003): 420 ng/mL |
| OCCOCCN1CCN(C2=Nc3ccccc3Sc3ccccc32)CC1 [Quetiapine, quetiapine] | – | – | – | – | – | – | – | – | – | – | – | – | – | Max. Plasma Levels ([4]; ref Aichhorn et al., 2006): 1.3 µM; Max. Plasma Levels ([4]; ref Grimm et al., 2006): 2.7 µM; Max. Plasma Levels ([4]; ref Lin et al., 2004): 0.24 µM; Max. Plasma Levels ([5]; ref Aichhorn et al., 2006): 491 ng/mL; Max. Plasma Levels ([5]; ref Grimm et al., 2006): 1042 ng/mL; Max. Plasma Levels ([5]; ref Lin et al., 2004): 91 ng/mL; Max. Plasma Levels ([5]; ref Tauscher-Wisniewski et al., 2002): 1454 ng/mL |
